The values below come from patent US8658648B2, “Modified chloroquines with single ring moiety or fused ring moiety” (DesignMedix, Inc., priority 2008, dated 2014).

The test system of data set [1] is Dd2 (CQ^R) P. falciparum strain. As to the kind of experiment: In vitro fluorescence (Sybr Green I) assay for IC50 against Dd2 strain. The data set is classed as cell-based. Conditions: Plasmodium falciparum, read-out: IC50-Dd2. The source says: (§1) This method employs fluorescent detection of the level of parasitemia in cultured red blood cells and can be automated for high-throughput screening of antimalarial RCQs. This exemplary method allows the inhibitory agent (such as a MCQ) to be in contact with the parasite for an entire developmental cycle without purine starvation, which is in contrast to the traditional ^3H-hypoxanthine method (Desjardins et al. 1979. Antimicrob. Agents Chemother. 16(6):710-718, which is incorporated herein by reference in its entirety). Briefly, to perform the Smilkstein et al. method, an initial parasitemia of approximately 0.2% is attained by adding uninfected red blood cells (RBCs) to a stock culture of Plasmodium-infected RBCs. […] After a period of incubation (such as about 72 hours), a sufficient amount (e.g., 100 μL) of a fluorescent DNA binding dye-detergent mixture (e.g., Sybr Green I dye-detergent mixture) to lyse cells and bind to DNA is added to the reactions. Because uninfected RBCs have no DNA, only parasite DNA (in infected RBCs) is available for binding to the fluorescent dye (e.g., Sybr Green I). Samples are then incubated in the dark for a period of time (e.g., one hour), followed by measurement of levels of fluorescence. For Sybr Green 1, excitation and emission wavelength are 485 and 530 nm, respectively. Fluorescence readings, which represent the amount of parasite DNA in the sample, can be plotted against the Log [drug] and fit to a curve by nonlinear regression to obtain the IC50 value for the tested compound.
(§2) An in vitro fluorescence assay for determining IC50 of antimalarial drugs was performed as previously described by Smilkstein et al. (2004. Antimicrob. Agents Chemother. 48(5):1803-1806). This procedure can be automated for high-throughput screening of the antimalarial activities of RCQs described herein. This method also allows the tested agent (e.g., a MCQ) to be in contact with the parasite for an entire developmental cycle without purine starvation (which occurs with the commonly used ^3H-hypoxanthine method; see, e.g., Desjardins et al. 1979. Antimicrob. Agents Chemother. 16, (6):710-7188).
(§3) Briefly, an initial parasitemia of approximately 0.2% was attained by addition of uninfected red blood cells to a stock culture of cells infected with Dd2 (CQ^R), 7G8 (CQ^R), or D6 (CQ^S) P. falciparum strains. A 10 mM solution of a test compound (in DMSO) was prepared. The test compound (at a final concentration from 10^−11 to 10^−4 M) and infected red blood cells (at a final concentration of 2% (v/v)) were mixed in 100 μL samples in individual wells of a 96-well plate. Each sample was prepared in triplicate. A triplicate set of reactions containing CQ (instead of the test compound) was included as a control. After a 72 hour incubation period, Sybr Green I dye-detergent mixture (100 μL) was added to each reaction. The samples were further incubated for an hour in the dark, and then placed in a 96-well fluorescence plate reader (Gemini-EM, […]) and analyzed with excitation and emission wavelength bands at 485 and 530 nm, respectively. Fluorescence readings were plotted against the Log [drug], and curve fitting performed by nonlinear regression to find the IC50 value.

Data set [2] relates to 7G8 (CQ^R) P. falciparum strain. As to the kind of experiment: In vitro fluorescence (Sybr Green I) assay for IC50 against 7G8 strain. The following applies: Plasmodium falciparum, read-out: IC50-7G8. The data set is classed as cell-based.
Source text: as §1, §2, §3

Data set [3] concerns D6 (CQ^S) P. falciparum strain. As to the kind of experiment: In vitro fluorescence (Sybr Green I) assay for IC50 against D6 strain. Type of data set: cell-based. Conditions: Plasmodium falciparum, read-out: IC50-D6.
Source text: as §1, §2, §3

Data set [4] concerns mitogen-induced marine spleen lymphocytes. The data set is classed as cell-based. The following applies: LC50; mouse spleen lymphocytes, 72 hours incubation, then resazurin 24 hours. As to the method: Mouse spleen lymphocytes were isolated from C57B1/6J mice by teasing tissues on a metallic sieve screen. […] Two hundred (200) μl isolated cells were then seeded in separate wells of a 96-well flat-bottom tissue culture plate at a density of 2×10^5 cells per well. […] After 72 hours incubation in a humidified atmosphere at 37° C. and 5% CO2, a solution of resazurin PBS was added to a final concentration 10 μM, and the plates were returned to the incubator for another 24 hours. Resazurin is a substrate which changes color in response to metabolic activity (such as that found in living cells). […] LC50 values were determined from plots of florescence versus drug concentration using non-linear regression by Prism software.

Another data set deals with P. falciparum strain 7G8. Conditions: cited from earlier work.
The subject of a further data set is P. falciparum strain 3D7. Conditions: cited from earlier work.
In a further data set the test system is P. falciparum strain Dd2. The following applies: cited from earlier work. Further: key: S = sensitive; R = resistant; S/R = intermediate level of resistance.
The next data set relates to P. falciparum strain W2. Conditions: cited from earlier work.
The test system of a further data set is P. falciparum strain D6. Conditions: cited from earlier work. Further: key: S = sensitive; R = resistant; S/R = intermediate level of resistance.
For data set [5], the system named is P. falciparum strain FCR3. The following applies: cited from earlier work. Further: key: S = sensitive; R = resistant; S/R = intermediate level of resistance.
The test system of data set [6] is P. falciparum strain TM91C235. Conditions: cited from earlier work. Further: key: S = sensitive; R = resistant; S/R = intermediate level of resistance.
In a further data set the test system is P. berghei. The data set is described as follows: In vivo activity in mice against P. berghei (survival). Conditions: second 4× oral dose experiment, dosage equimolar to 30 mg/kg CQ; monitored up to 30 days.
Where [7] appears, read: Erythrocyte, Dd2 (CQ^R) strain in infected red blood cells, 72 hour incubation.
[8] abbreviates: Erythrocyte, 7G8 (CQ^R) strain in infected red blood cells, 72 hour incubation.
The mark [9] stands for this setting: Erythrocyte, D6 (CQ^S) strain in infected red blood cells, 72 hour incubation.

The structures appear in SMILES notation. pIC50: −log10 of the molar value. Read-outs that look alike come from different tables or passages of the source.
Wherever Drug susceptibility of P. falciparum strain 3D7 is given: key: S = sensitive; R = resistant; S/R = intermediate level of resistance.
Wherever Drug susceptibility of P. falciparum strain 7G8 is given: key: S = sensitive; R = resistant; S/R = intermediate level of resistance.
Wherever Drug susceptibility of P. falciparum strain W2 is given: key: S = sensitive; R = resistant; S/R = intermediate level of resistance.

For the compound `Clc1ccc2c(NCCCN3CCN(c4ccc(-c5ccccc5)cc4)CC3)ccnc2c1` [N-(3-(4-(biphenyl-4-yl)piperazin-1-yl)propyl)-7-chloroquinolin-4-amine], the negative-log IC50 (pIC50) was 9.44 in data set [1] (DD2, Erythrocyte, 72 h); 9.89 in data set [2] (7G8, Erythrocyte, 72 h); 10.00 in [3] (D6, Erythrocyte, 72 h). In data set [4], this compound came in with a Cytotoxicity of 2200 nM.
Turning to `CCN(CC)CCCC(C)Nc1ccnc2cc(Cl)ccc12` (centres unmarked) [Chloroquine, chloroquine], the negative logarithm of the IC50 (pIC50) in data set [1] (DD2, Erythrocyte, 72 h) is 6.99; in [2] (7G8, Erythrocyte, 72 h), 6.97; in data set [3] (D6, Erythrocyte, 72 h), 8.16. The “Drug susceptibility of P. falciparum strain 7G8” value in the data set with P. falciparum strain 7G8 was “R”. In addition, in the data set on P. falciparum strain 3D7, the “Drug susceptibility of P. falciparum strain 3D7” value was “S”. For the same compound, the “Drug susceptibility of P. falciparum strain Dd2” value with P. falciparum strain Dd2 is recorded as “R”. For the same compound, in the data set with P. falciparum strain W2, the “Drug susceptibility of P. falciparum strain W2” value is listed as “R”. The “Drug susceptibility of P. falciparum strain D6” value in the data set with P. falciparum strain D6 is given as “S”. In data set [5], the “Drug susceptibility of P. falciparum strain FCR3” value is “R”. Moreover, the “Drug susceptibility of P. falciparum strain TM91C235” value in data set [6] is on record as “R”.
Take `CC1(C)N=C(N)N=C(N)N1c1ccc(Cl)cc1` [Cycloguanil]: the “Drug susceptibility of P. falciparum strain Dd2” value in the data set on P. falciparum strain Dd2 is recorded as “S”. The “Drug susceptibility of P. falciparum strain W2” value with P. falciparum strain W2 is on record as “R”. In addition, in the data set with P. falciparum strain D6, the “Drug susceptibility of P. falciparum strain D6” value was “S”. Also, in [5], the “Drug susceptibility of P. falciparum strain FCR3” value was “S”.
For `C=C[C@H]1C[N@@]2CC[C@H]1C[C@H]2[C@H](O)c1ccnc2ccc(OC)cc12` [Quinine], the “Drug susceptibility of P. falciparum strain Dd2” value in the data set on P. falciparum strain Dd2 was “R”. The “Drug susceptibility of P. falciparum strain W2” value in the data set with P. falciparum strain W2 is “R”. Also, the “Drug susceptibility of P. falciparum strain D6” value with P. falciparum strain D6 is on record as “S”. Moreover, in data set [5], the “Drug susceptibility of P. falciparum strain FCR3” value is “S”. The “Drug susceptibility of P. falciparum strain TM91C235” value in data set [6] is reported as “R”.
For the compound `OC(c1cc(C(F)(F)F)nc2c(C(F)(F)F)cccc12)C1CCCCN1` (centres unmarked) [Mefloquine], in the data set on P. falciparum strain Dd2, the “Drug susceptibility of P. falciparum strain Dd2” value is given as “R”. Further, the “Drug susceptibility of P. falciparum strain W2” value in the data set with P. falciparum strain W2 was “S”. For the same compound, the “Drug susceptibility of P. falciparum strain D6” value with P. falciparum strain D6 was “S/R”. Besides, the “Drug susceptibility of P. falciparum strain FCR3” value in [5] was “S”. In data set [6], the “Drug susceptibility of P. falciparum strain TM91C235” value is recorded as “R”.
As for `COc1ncnc(NS(=O)(=O)c2ccc(N)cc2)c1OC` [Sulfadoxine], the “Drug susceptibility of P. falciparum strain Dd2” value in the data set with P. falciparum strain Dd2 is on record as “S”. Moreover, the “Drug susceptibility of P. falciparum strain W2” value in the data set with P. falciparum strain W2 is recorded as “R”. Besides, in the data set with P. falciparum strain D6, the “Drug susceptibility of P. falciparum strain D6” value was “S”. Besides, the “Drug susceptibility of P. falciparum strain FCR3” value in data set [5] was “S”. Besides, the “Drug susceptibility of P. falciparum strain TM91C235” value in data set [6] is reported as “R”.
Take `Clc1ccc2c(NCCCN3CCN(c4ccccn4)CC3)ccnc2c1` [7-chloro-N-(3-(4-(pyridin-2-yl)piperazin-1-yl)propyl)quinolin-4-amine]: the negative logarithm of the IC50 (pIC50) in data set [1] (setting [7]) is 8.32; in data set [2] (setting [8]), 8.02; in data set [3] (setting [9]), 8.57. Further, the “average survival for the mice” value in the data set on P. berghei came out at 20 days. The same compound had a Cytotoxicity in data set [4] of 8600 nM.
Consider `Clc1ccc2c(NCCCN3CCN(c4ccccc4)CC3)ccnc2c1` [7-chloro-N-(3-(4-phenylpiperazin-1-yl)propyl)quinolin-4-amine], for which the pIC50 in [1] (DD2, Erythrocyte, 72 h) is above 8.60; in data set [3] (D6, Erythrocyte, 72 h), above 8.60. Besides, the Cytotoxicity in [4] stood at 6400 nM.
In the case of `FC(F)(F)c1ccc(N2CCN(CCCNc3ccnc4cc(Cl)ccc34)CC2)cc1` [7-chloro-N-(3-(4-(4-(trifluoromethyl)phenyl)piperazin-1-yl)propyl)quinolin-4-amine], the negative logarithm of the IC50 (pIC50) in [1] (setting [7]) was 9.77; in data set [2] (setting [8]), 9.70; in data set [3] (setting [9]), 11.30.
As for `Clc1ccc2c(NCCCN3CCN(c4cccc(-c5ccccc5)c4)CC3)ccnc2c1` [N-(3-(4-(biphenyl-3-yl)piperazin-1-yl)propyl)-7-chloroquinolin-4-amine], the pIC50 is 8.74 in [1] (DD2, Erythrocyte, 72 h) and 9.03 in [3] (D6, Erythrocyte, 72 h). The Cytotoxicity in data set [4] was determined as 2100 nM.
As for `Clc1ccc2c(NCCCN3CCN(c4ccccc4-c4ccccc4)CC3)ccnc2c1` [N-(3-(4-(biphenyl-2-yl)piperazin-1-yl)propyl)-7-chloroquinolin-4-amine], the negative-log IC50 (pIC50) in [1] (DD2, Erythrocyte, 72 h) is 8.59; in [3] (D6, Erythrocyte, 72 h), 8.92. The Cytotoxicity in data set [4] is 1700 nM.
Turning to `O=[N+]([O-])c1ccc(N2CCN(CCCNc3ccnc4cc(Cl)ccc34)CC2)nc1` [7-chloro-N-(3-(4-(5-nitropyridin-2-yl)piperazin-1-yl)propyl)quinolin-4-amine], the results for the pIC50 in data set [1] (setting [7]), in [2] (setting [8]) and in [3] (setting [9]) were 9.32, 9.35 and 9.59, respectively.
The corresponding values for `Fc1ccc(N2CCN(CCCNc3ccnc4cc(Cl)ccc34)CC2)cc1` [7-chloro-N-(3-(4-(4-fluorophenyl)piperazin-1-yl)propyl)quinolin-4-amine] are 9.10, 9.52 and 9.85.
